Earlier results on one compound are cited in patent publication US20160199317A1, “ESTRADIOL CONTAINING TRANSDERMAL DRUG DELIVERY SYSTEMS AND COMPOSITIONS” (3M INNOVATIVE PROPERTIES COMPANY, priority 2013, published 2016).

For the data set the following is noted: background statement.

With `C[C@]12CC[C@@H]3c4ccc(O)cc4CC[C@H]3[C@@H]1CC[C@@H]2O` [estradiol, estra-1,3,5(10)-triene-3,17β-diol], the half-life entry is recorded as “about one”.
